Legend:
A2A adenosine receptor = A2A adenosine receptor (Homo sapiens (Human), UniProt P29274); experiment: Adenosine receptor binding selectivity A1 > A2A; settings: ratio of Ki values
Method: (§1) As used herein, the term “selective adenosine A1 agonist” means an A1 agonist that has a high affinity to the A1 receptor while simultaneously having a low affinity for the A2 and A3 adenosine receptors.
(§2) Membranes for radioligand binding experiments are prepared from fresh or frozen cells as described in Klotz et al., Naunyn-Schmiedeberg's Arch. […] The cell suspension is then homogenized in ice-cold hypotonic buffer (5 mM Tris/HCl, 2 mM EDTA, pH 7.4) and the homogenate is spun for 10 minutes (4° C.) at 1,000 g.
(§3) Nonspecific binding is determined in the presence of 100 μM R-PM and 1 mM theophylline, respectively. For details see Klotz et al., Naunyn-Schmiedeberg's Arch.

A3 adenosine receptor [1] = target: T1, A3 adenosine receptor (Homo sapiens (Human), UniProt P0DMS8); experiment: Adenosine receptor binding selectivity A1 > A3; settings: ratio of Ki values
Method: as §1, §2, §3

[2] = target: human A1 adenosine receptor (Homo sapiens (Human), UniProt P30542); experiment: Inhibition of forskolin-stimulated adenylyl cyclase activity via A1 receptor; assay type: biochemical; settings: membranes of CHO cells stably transfected with human A1 receptor
Method: (§4) The A1 and A3 receptor-mediated inhibition of forskolin-stimulated adenylyl cyclase activity was tested in membranes prepared from CHO cells stably transfected with the human A1 and A3 adenosine receptors. The A2a and A2b receptor-mediated stimulation of basal cyclase activity was tested in membranes prepared from CHO cells stably transfected with the human A2a and […] adenosine receptors
(§5) Adenylyl Cyclase Inhibition Via Human Adenosine A1 and A3 Receptors

A3 adenosine receptor [3] = target: T1, A3 adenosine receptor; experiment: Inhibition of forskolin-stimulated adenylyl cyclase activity via A3 receptor; assay type: biochemical; settings: membranes of CHO cells stably transfected with human A3 receptor
Method: as §4, §5

[4] = Clinical study: single topical ocular dose, intraocular pressure in adults with OHT or POAG; assay type: in vivo, human; settings: for IOP difference from the placebo response: 2 hours postdose
From the text: The clinical study described herein is a multi-center, randomized, double-blind, placebo-controlled, dose-escalation study of a single topical ocular application of the study drug (i.e., Compound A or placebo) to the one study eye of adults with OHT or POAG. The “study eye” was defined as the eye with the higher mean IOP, recorded between 7:00 and 8:00 AM on the day prior to dosing (Day 0).
The adult subjects were sequentially assigned to 1 of 7 treatment groups.
Masked-intraocular pressures were determined in duplicate with a Goldmann tonometer following traditional corneal anesthesia. […] Subsequent bilateral external eye examinations and masked-IOP determinations were performed at 9:00 AM, 10:00 AM, 12:00 noon, and 2:00 PM (each ±5 minutes), corresponding to 1, 2, 4, and 6 hours post study drug application. In addition in the 700 mcg cohort an IOP determination was performed at 6:00 PM (18:00), corresponding to 10 hours post study drug application.
The study drug was only administered to one eye per subject (the study eye). Dosages ranged from 2.5 micrograms to 350 micrograms per 50 microliter drop, per respective treatment group. A board-certified ophthalmologist (or comparably trained designee) administered the study drug. Randomized enrollment of subjects into each successive treatment groups was predicated upon the review and approval of the safety data from the completed treatment groups by the Safety Research Committee, consisting of three qualified physicians (i.e., an internist, cardiologist, and ophthalmologist).

T1 sequence (P0DMS8 whole entry): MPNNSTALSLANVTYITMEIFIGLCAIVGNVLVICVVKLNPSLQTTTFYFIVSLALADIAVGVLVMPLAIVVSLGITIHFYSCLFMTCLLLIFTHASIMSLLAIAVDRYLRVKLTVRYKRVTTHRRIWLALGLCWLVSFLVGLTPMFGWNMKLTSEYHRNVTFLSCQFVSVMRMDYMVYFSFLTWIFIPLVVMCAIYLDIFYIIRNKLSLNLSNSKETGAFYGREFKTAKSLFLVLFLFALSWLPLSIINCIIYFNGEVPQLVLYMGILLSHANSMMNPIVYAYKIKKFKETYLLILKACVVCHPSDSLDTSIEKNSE
Sequence of human A1 adenosine receptor (P30542 whole entry): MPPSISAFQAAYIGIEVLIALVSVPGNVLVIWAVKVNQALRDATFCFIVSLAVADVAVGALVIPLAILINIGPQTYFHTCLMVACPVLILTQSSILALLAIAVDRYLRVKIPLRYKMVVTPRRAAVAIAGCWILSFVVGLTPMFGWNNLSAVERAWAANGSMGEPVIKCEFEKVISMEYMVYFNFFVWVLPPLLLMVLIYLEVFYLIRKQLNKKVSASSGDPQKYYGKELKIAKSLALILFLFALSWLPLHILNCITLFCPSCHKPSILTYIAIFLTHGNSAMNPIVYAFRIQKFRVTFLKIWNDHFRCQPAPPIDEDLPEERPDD
Sequence of A2A adenosine receptor (P29274 whole entry): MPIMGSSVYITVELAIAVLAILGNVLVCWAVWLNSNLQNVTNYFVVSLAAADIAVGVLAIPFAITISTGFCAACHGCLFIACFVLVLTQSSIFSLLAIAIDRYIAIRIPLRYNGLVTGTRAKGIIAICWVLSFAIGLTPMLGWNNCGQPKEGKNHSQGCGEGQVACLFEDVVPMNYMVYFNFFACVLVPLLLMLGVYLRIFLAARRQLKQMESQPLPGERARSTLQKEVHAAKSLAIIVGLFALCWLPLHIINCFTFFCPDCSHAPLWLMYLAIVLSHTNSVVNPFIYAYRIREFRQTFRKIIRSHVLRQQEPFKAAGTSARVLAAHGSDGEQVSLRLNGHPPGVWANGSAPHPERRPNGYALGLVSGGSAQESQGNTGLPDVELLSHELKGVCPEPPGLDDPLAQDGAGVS

| A1 > A2A SELECTIVITY [KiA2(nm)/KiA1(nm)] (A2A adenosine receptor) | A1 > A3 SELECTIVITY [KiA3(nm)/KiA1(nm)] (A3 adenosine receptor [1]) | EC50 [2] [nM] | Compound | EC50 (A3 adenosine receptor [3]) [nM] | further results |
| --- | --- | --- | --- | --- | --- |
| 3945 | 260 | – | O=[N+]([O-])OC[C@H]1O[C@@H](n2cnc3c(NC4CC5CCC4C5)ncnc32)[C@H](O)[C@@H]1O (stereo partly drawn) [Compound F, ((2R,3S,4R,5R)-5-(6-(bicycle-[2.2.1]-heptan-2-ylamino)-9H-purin-9-yl)-3,4-dihydroxytetrahydrofuran-2-yl)methyl nitrate] | – | – |
| >9434 | 202 | – | O=[N+]([O-])OC[C@H]1O[C@@H](n2cnc3c(NC4CCOC4)ncnc32)[C@H](O)[C@@H]1O (stereo partly drawn) [Compound D, ((2R,3S,4R,5R)-3,4-dihydroxy-5-(6-(tetrahydrofuran-3-ylamino)-9H-purin-9-yl)tetrahydrofuran-2-yl)methyl nitrate] | – | – |
| – | – | 17 | O=[N+]([O-])OC[C@H]1O[C@@H](n2cnc3c(NC4CCCC4)ncnc32)[C@H](O)[C@@H]1O [Compound A, ((2R,3S,4R,5R)-5-(6-(cyclopentylamino)-9H-purin-9-yl)-3,4-dihydroxytetrahydrofuran-2-yl)methyl nitrate] | – | IOP difference from the placebo response ([4]; 350 mcg treatment group): Statistically significant differences from the placebo response; duration of the decrease in IOP ([4]; 350 mcg treatment group, entire observation period): ~6 h; IOP difference from the placebo response ([4]; 700 mcg treatment group): Statistically significant differences from the placebo response; dose group with % of subjects achieving greatest IOP decrement (responder analysis) ([4]; across 7 dose groups): 350 µg; dose with largest mean and median decreases in IOP ([4]; across 7 dose groups 2.5-700 mcg): 350 µg; decrement in IOP from the Day 1 pre-dose baseline ([4]; single topical ocular dose 2.5-700 mcg, study eye, OHT or POAG): Dose-related decrement in IOP; responder analysis: subjects with categorical mean IOP decreases from baseline of ≧10%, ≧15% or ≧20% ([4]; throughout the observation period (~6 hrs)): showed a dose-response; time post-dose of largest difference in IOP between drug-treated and placebo-treated eyes ([4]; topical ocular doses, human subjects): approximately 2 hours |

Continued, compound first:

| Compound | A1 > A2A SELECTIVITY [KiA2(nm)/KiA1(nm)] (A2A adenosine receptor) | A1 > A3 SELECTIVITY [KiA3(nm)/KiA1(nm)] (A3 adenosine receptor [1]) | EC50 [2] [nM] | EC50 (A3 adenosine receptor [3]) [nM] | further results |
| --- | --- | --- | --- | --- | --- |
| O=S(=O)([O-])OC[C@H]1O[C@@H](n2cnc3c(NC4CCCCC4)nc(Cl)nc32)[C@H](O)[C@@H]1O.[Na+] [Compound G, sodium ((2R,3S,4R,5R)-5-(2-chloro-6-(cyclohexylamino)-9H-purin-9-yl)-3,4-dihydroxytetrahydrofuran-2-yl)methyl sulfate] | 200 | 130 | 19 | > 100000 | – |
| O=[N+]([O-])OC[C@H]1O[C@@H](n2cnc3c(NC4CCCCC4)ncnc32)[C@H](O)[C@@H]1O [Compound E, ((2R,3S,4R,5R)-5-(6-(cyclohexylamino)-9H-purin-9-yl)-3,4-dihydroxytetrahydrofuran-2-yl)methyl nitrate] | 878 | 1098 | 29 | > 100000 | – |
| O=S(=O)([O-])OC[C@H]1O[C@@H](n2cnc3c(NC4CCCC4)ncnc32)[C@H](O)[C@@H]1O.[Na+] [Compound C, sodium ((2R,3S,4R,5R)-5-(6-(cyclopentylamino)-9H-purin-9-yl)-3,4-dihydroxytetrahydrofuran-2-yl)methyl sulfate] | 2250 | 251 | – | – | – |
